Measured values taken from patent EP4775580A1, “COMPOUND, PHARMACEUTICAL COMPOSITION COMPRISING SAME, AND USE THEREOF” (Euregen Biopharma Co., Ltd., priority 2023, dated 2025).

Assays:
[1] = system: MV-4-11 cells; assay: Antiproliferative activity against MV-4-11 cells (CTG method, 72 h); format: cell-based; conditions: Homo sapiens, MV4-11, 72 hours incubation, CellTiter-Glo
Description: • 1. Experimental Principle: MV-4-11 is a human leukemia cell line harboring MLL translocation and expressing the MLL fusion protein MLL-AF4. […] Experimental Materials: CellTiter-Glo was purchased from Promega (Cat. #G7571); IMDM medium was purchased from Gibco (Cat. #12440061); fetal bovine serum was purchased from Excell (Cat. #FND500); dimethyl sulfoxide (DMSO) was purchased from Sigma (Cat. #D2650); 384-well cell culture plates were purchased from Corning (Cat. #3756); automated cell counter was obtained from Life Technologies (Model: Countess II); microplate reader was obtained from PerkinElmer (Model: EnVision Multilabel Reader). • 3. Experimental Methods: Cells in logarithmic growth phase were resuspended in growth medium (IMDM + 10% FBS) and diluted to the target density (50,000/mL). The cell suspension was seeded into 384-well plates at 50 µL per well and incubated overnight at 37°C in a 5% CO2 incubator.
Test compounds were dissolved in DMSO to prepare 10 mM stock solutions. The stock solutions were first diluted to 2 mmol/L with DMSO, followed by 3-fold serial dilutions to generate 10 concentrations. From each concentration, 5.5 µL was diluted with 94.5 µL growth medium. The diluted solutions were then added to the 384-well plates containing seeded cells at 5 µL per well.
Cells treated with test compounds were incubated at 37°C in a 5% CO2 incubator for 72 hours. The 384-well plates were equilibrated at room temperature, and 15 µL of CellTiter-Glo reagent was added to each well. The plates were mixed on a vortex mixer for 2 minutes and incubated at room temperature for 60 minutes. Luminescence values were read using the EnVision Multilabel Reader, and IC50 values were calculated using GraphPad Prism 5.0 software.

[2] = system: Molm-13 cells; assay: Antiproliferative activity, CellTiter-Glo, 7 days (Test Example 2), Molm-13; format: cell-based; conditions: Homo sapiens, 168 h, 7 days incubation, read-out: MOLM13 IC50
Description: (§1) [0134] 1. Experimental Principle: MV-4-11, Molm-13, and OCI-AML-3 cells are human hematologic tumor cell lines harboring the Menin-MLL fusion. HL-60 is a wild-type human hematologic tumor cell line without Menin-MLL fusion. […] 2. Experimental Materials: MV-4-11, Molm-13, OCI-AML-3, and HL-60 cells were all purchased from Cobioer; CellTiter-Glo® was purchased from Promega (Cat. #G7571); RPMI-1640 was purchased from Viva Cell (Cat. #C3010-0500); IMDM was purchased from Viva Cell (Cat. #C3040-0500); fetal bovine serum (FBS) was purchased from Biosera (Cat. #FB-1058/500); penicillin-streptomycin was purchased from BasalMedia (Cat. #S110JV); 0.25% Trypsin-EDTA was purchased from BasalMedia (Cat. #S310KJ); dimethyl sulfoxide (DMSO) was purchased from Sinopharm (Cat. #30072418); 96-well plates were purchased from Corning (Cat. #3610); incubator was obtained from PHCbi (Model: MCO-18AC); inverted microscope was obtained from Mingmei (Cat. #MI52-0); automated cell counter was obtained from BodBoge (Model: JSY-SC-031N); microplate reader was obtained from PerkinElmer (Model: Envision); data processing software: GraphPad Prism 8.0. 3. […] After incubation at room temperature for 10 minutes, luminescence values were read using the EnVision microplate reader, and IC50 values were calculated using GraphPad Prism 8.0 software. […]

[3] = system: OCI-AML-3 cells; assay: Antiproliferative activity, CellTiter-Glo, 7 days (Test Example 2), OCI-AML-3; format: cell-based; conditions: Homo sapiens, 168 h, 7 days incubation, read-out: OCI-AML3 IC50
Description: as §1

[4] = system: MV-4-11 subcutaneous tumor xenograft; assay: In vivo efficacy in subcutaneous MV-4-11 tumor xenograft model; set-up: species or system female NOD/SCID mice; conditions: oral gavage once daily, tumor volume, Figure 1
Description: • 1. Objective: To evaluate the in vivo efficacy of test compounds in a subcutaneous MV-4-11 tumor xenograft model in female NOD/SCID mice. • 2. Experimental Materials: The test compound was Compound 3 prepared according to the examples of the present invention; the positive control compound SNDX-5613 was purchased from Chengdu Zhihui Zhongxin Biomedical Co., Ltd.; MV-4-11 cells were purchased from Nanjing Cobioer; NOD/SCID mice were purchased from Beijing Vital River Laboratory Animal Technology Co., Ltd. • 3. Experimental Methods: Female NOD/SCID mice, 6-8 weeks of age, weighing 16-22 g, were used. MV-4-11 cells were cultured in IMDM medium supplemented with 20% fetal bovine serum. Cells in exponential growth phase were harvested, resuspended in phosphate-buffered saline, and prepared as a cell suspension at a density of 1 × 10^7 cells/0.1 mL. Cells were subcutaneously inoculated into the right dorsal neck region of each mouse (1 × 10^7 cells/mouse) with 50% Matrigel. When the mean tumor volume reached approximately 50-100 mm^3, mice were randomized and treatment was initiated by oral gavage administration once daily. Tumor diameters were measured twice weekly using digital calipers. Tumor volume was calculated using the formula: V = 0.5 × a × b^2, where a and b represent the longest and shortest tumor diameters, respectively.

CCN(C(=O)c1cc(F)ccc1N1CCN([C@@H]2CCN([C@H](CCCN(C)CCOC)C(C)C)C2)c2ncncc21)C(C)C [Example 3]
IC50 [1]: 22.9 nM
IC50 [2]: 26.7 nM
IC50 [3]: 103 nM
efficacy in MV-4-11 subcutaneous tumor xenograft model [4]: superior efficacy compared to the positive control SNDX-5613
